According to patent US9211310B2, “Use of a Chinese medicine composition in preparing medicaments for treating secondary prevention of myocardial infarction” (TASLY PHARMACEUTICAL GROUP CO., LTD, priority 2010, dated 2015):

System: patients after acute myocardial infarction
Assay: Life quality, Seattle Angina Questionnaire (SAQ), same clinical trial
Assay type: in vivo, human
Text: 3508 patients who were in accordance with the diagnostic standards of AMI for 28 days to 2 years and differentiated as Qi deficiency and blood stagnation syndrome by TCM were studied. 0.5 g Chinese medicine composition prepared by the method of EXAMPLE 1 (Coded as QSYQ) was administrated half an hour after meal, 3 times per day.
There were 19 questions in the Seattle angina questionnaire (SAQ), including 5 parts: physical limitation (PL), anginal stability (AS), anginal frequency (AF), treatment satisfaction (TS) and disease perception (DP). After being given necessary explanation by doctors, the questions were answered independently by patients.
They included the overall survival time, angina pectoris score, TCM symptom score and life quality score, where angina pectoris score, TCM symptom score and life quality score were evaluated at randomization, in 1st, 3rd, 6th, 9th, 12th month after treatment and 18th month after follow-up.
All evaluation results of SAQ were described during the period of observation, and Wilcoxon rank sum test was used for inter-group comparison.
The evaluation results in the SAQ were depicted in different observations, and inter-group comparison was tested by Wilcoxon Rank-sum test.

CC(=O)Oc1ccccc1C(=O)O [Control group, aspirine]
SAQ Question 1-5: Slightly limited, percent of patients (12 months after treatment, PP): (29.70%) | SAQ Question 1-9: Mildly limited, % of cases (12 months after treatment, PP): (20.07%) | SAQ Question 1-9: Mildly limited, cases (12 months after treatment, PP): 278 | SAQ Question 1-9: Moderately limited, % of cases (12 months after treatment, PP): (20.87%) | SAQ Question 1-9: Moderately limited, cases (12 months after treatment, PP): 289 | SAQ Question 1-9: Not limited, % of cases (12 months after treatment, PP): (5.05%) | SAQ Question 1-9: Not limited, cases (12 months after treatment, PP): 70 | SAQ Question 1-9: Other reasons, % of cases (12 months after treatment, PP): (6.28%) | SAQ Question 1-9: Other reasons, cases (12 months after treatment, PP): 87 | SAQ Question 1-9: Severely limited, % of cases (12 months after treatment, PP): (29.75%) | SAQ Question 1-9: Severely limited, cases (12 months after treatment, PP): 412 | SAQ Question 1-9: Slightly limited, % of cases (12 months after treatment, PP): (17.98%) | SAQ Question 1-9: Slightly limited, cases (12 months after treatment, PP): 249 | SAQ 2nd question: Clearly increased, % of cases (Baseline, FAS): (3.17%) | SAQ 2nd question: Clearly increased, cases (Baseline, FAS): 55 | SAQ 2nd question: Clearly reduced, % of cases (Baseline, FAS): (12.46%) | SAQ 2nd question: Clearly reduced, cases (Baseline, FAS): 216 | SAQ 2nd question: Same, % of cases (Baseline, FAS): (62.09%) | SAQ 2nd question: Same, cases (Baseline, FAS): 1076 | SAQ 2nd question: Slightly increased, % of cases (Baseline, FAS): (6.92%) | SAQ 2nd question: Slightly increased, cases (Baseline, FAS): 120 | SAQ 2nd question: Slightly reduced, % of cases (Baseline, FAS): (15.35%) | SAQ 2nd question: Slightly reduced, cases (Baseline, FAS): 266 | SAQ 3rd question: 1-2 times per week, % of cases (Baseline, FAS): (15.35%) | SAQ 3rd question: 1-2 times per week, cases (Baseline, FAS): 266 | SAQ 3rd question: 1-3 times per day, % of cases (Baseline, FAS): (6.92%) | SAQ 3rd question: 1-3 times per day, cases (Baseline, FAS): 120 | SAQ 3rd question: <1 time per week, % of cases (Baseline, FAS): (12.46%) | SAQ 3rd question: <1 time per week, cases (Baseline, FAS): 216 | SAQ 3rd question: No onset, % of cases (Baseline, FAS): (0.00%) | SAQ 3rd question: No onset, cases (Baseline, FAS): 0 | SAQ 3rd question: ≧3 times per week, % of cases (Baseline, FAS): (62.09%) | SAQ 3rd question: ≧3 times per week, cases (Baseline, FAS): 1076 | SAQ 3rd question: ≧4 times per day, % of cases (Baseline, FAS): (3.17%) | SAQ 3rd question: ≧4 times per day, cases (Baseline, FAS): 55 | SAQ Question 1-3: Mildly limited, number of patients (Baseline, FAS): 149 | SAQ Question 1-3: Mildly limited, percent of patients (Baseline, FAS): (8.57%) | SAQ Question 1-3: Moderately limited, number of patients (Baseline, FAS): 53 | SAQ Question 1-3: Moderately limited, percent of patients (Baseline, FAS): (3.05%) | SAQ Question 1-3: Not limited, number of patients (Baseline, FAS): 1170 | SAQ Question 1-3: Not limited, percent of patients (Baseline, FAS): (67.32%) | SAQ Question 1-3: Other reasons, number of patients (Baseline, FAS): 11 | SAQ Question 1-3: Other reasons, percent of patients (Baseline, FAS): (0.63%) | SAQ Question 1-3: Severely limited, number of patients (Baseline, FAS): 15 | SAQ Question 1-3: Severely limited, percent of patients (Baseline, FAS): (0.86%) | SAQ Question 1-3: Slightly limited, number of patients (Baseline, FAS): 340 | SAQ Question 1-3: Slightly limited, percent of patients (Baseline, FAS): (19.56%) | SAQ Question 1-4: Mildly limited, number of patients (Baseline, FAS): 402 | SAQ Question 1-4: Mildly limited, percent of patients (Baseline, FAS): (23.21%) | SAQ Question 1-4: Moderately limited, number of patients (Baseline, FAS): 208 | SAQ Question 1-4: Moderately limited, percent of patients (Baseline, FAS): (12.01%) | SAQ Question 1-4: Not limited, number of patients (Baseline, FAS): 495 | SAQ Question 1-4: Not limited, percent of patients (Baseline, FAS): (28.58%) | SAQ Question 1-4: Other reasons, number of patients (Baseline, FAS): 14 | SAQ Question 1-4: Other reasons, percent of patients (Baseline, FAS): (0.81%) | SAQ Question 1-4: Severely limited, number of patients (Baseline, FAS): 59 | SAQ Question 1-4: Severely limited, percent of patients (Baseline, FAS): (3.41%) | SAQ Question 1-4: Slightly limited, number of patients (Baseline, FAS): 554 | SAQ Question 1-4: Slightly limited, percent of patients (Baseline, FAS): (31.99%) | SAQ Question 1-5: Mildly limited, number of patients (Baseline, FAS): 357 | SAQ Question 1-5: Mildly limited, percent of patients (Baseline, FAS): (20.58%) | SAQ Question 1-5: Moderately limited, number of patients (Baseline, FAS): 238 | SAQ Question 1-5: Moderately limited, percent of patients (Baseline, FAS): (13.72%) | SAQ Question 1-5: Not limited, number of patients (Baseline, FAS): 567 | SAQ Question 1-5: Not limited, percent of patients (Baseline, FAS): (32.68%) | SAQ Question 1-5: Other reasons, number of patients (Baseline, FAS): 13 | SAQ Question 1-5: Other reasons, percent of patients (Baseline, FAS): (0.75%) | SAQ Question 1-5: Severely limited, number of patients (Baseline, FAS): 53 | SAQ Question 1-5: Severely limited, percent of patients (Baseline, FAS): (3.05%) | SAQ Question 1-5: Slightly limited, number of patients (Baseline, FAS): 507 | SAQ Question 1-5: Slightly limited, percent of patients (Baseline, FAS): (29.22%) | SAQ Question 1-9: Mildly limited, % of cases (Baseline, FAS): (14.70%) | SAQ Question 1-9: Mildly limited, cases (Baseline, FAS): 249 | SAQ Question 1-9: Moderately limited, % of cases (Baseline, FAS): (21.19%) | SAQ Question 1-9: Moderately limited, cases (Baseline, FAS): 359 | SAQ Question 1-9: Not limited, % of cases (Baseline, FAS): (2.36%) | SAQ Question 1-9: Not limited, cases (Baseline, FAS): 40
